In PMC6413153, “Design, Synthesis, and Use of Novel Photoaffinity Probes in Measuring the Serum Concentration of Glycogen Phosphorylase” (Molecules, 2019):

Experiments:
[1] = test system: serum proteomes prepared from rats with acute myocardial infarction; experiment: Photoaffinity labeling of serum proteomes, gel-based fluorescence imaging; assay type: binding, rat; details: UV light 30 min
Description: Based on the results of the potency in the enzyme assay, probe 1 was selected and used throughout photolabeling studies (Figure 3). The serum proteomes prepared from rats with acute myocardial infarction were incubated with probe 1 at concentrations of […], and 300, 100, and 30 nM, respectively. The mixture was exposed to UV light for 30 min, and then was imaged using the Tanon-6100 Chemiluminescent Imaging system.
An attempt to semi-quantitatively analyze the serum-free GP level after an acute myocardial infarction was explored. Serum blanks were added in increasing quantities of RMGPa (0, 12.5, 25, 50, and 100 ng/mL at a final concentration) in the presence of an excess of probe 1 (10 μM). In the same way, probe 1 was added to the serum in an acute myocardial infarction model in a rat. […]
Blood samples prepared from rats with acute myocardial infarction were drawn from the abdominal aorta in rats after coronary ligation using a 23-gauge needle. […] The protein concentration of the suspension was measured according to the Bradford method. […] The band densities were calculated with Quantity One software 4.6.2 (Bio-Rad Laboratories, Inc., Hercules, CA, USA). […] The data were recorded on an LTQ-Orbitrap Fusion mass spectrometer (ThermoFisher Scientific Inc., Waltham, MA, USA) coupled to an Easy-nLC 1000 LC System (Thermo Fischer Scientic). […]

[2] = biological target: T1, rabbit muscle glycogen phosphorylase a (RMGPa) (Oryctolagus cuniculus, UniProt P00489); experiment: Enzyme inhibition assay against rabbit muscle glycogen phosphorylase a (phosphate release from glucose-1-phosphate); assay type: biochemical; details: mean ± S.D. of three determinations; NI means no inhibition
T1 sequence (P00489 2-843 limits assumed): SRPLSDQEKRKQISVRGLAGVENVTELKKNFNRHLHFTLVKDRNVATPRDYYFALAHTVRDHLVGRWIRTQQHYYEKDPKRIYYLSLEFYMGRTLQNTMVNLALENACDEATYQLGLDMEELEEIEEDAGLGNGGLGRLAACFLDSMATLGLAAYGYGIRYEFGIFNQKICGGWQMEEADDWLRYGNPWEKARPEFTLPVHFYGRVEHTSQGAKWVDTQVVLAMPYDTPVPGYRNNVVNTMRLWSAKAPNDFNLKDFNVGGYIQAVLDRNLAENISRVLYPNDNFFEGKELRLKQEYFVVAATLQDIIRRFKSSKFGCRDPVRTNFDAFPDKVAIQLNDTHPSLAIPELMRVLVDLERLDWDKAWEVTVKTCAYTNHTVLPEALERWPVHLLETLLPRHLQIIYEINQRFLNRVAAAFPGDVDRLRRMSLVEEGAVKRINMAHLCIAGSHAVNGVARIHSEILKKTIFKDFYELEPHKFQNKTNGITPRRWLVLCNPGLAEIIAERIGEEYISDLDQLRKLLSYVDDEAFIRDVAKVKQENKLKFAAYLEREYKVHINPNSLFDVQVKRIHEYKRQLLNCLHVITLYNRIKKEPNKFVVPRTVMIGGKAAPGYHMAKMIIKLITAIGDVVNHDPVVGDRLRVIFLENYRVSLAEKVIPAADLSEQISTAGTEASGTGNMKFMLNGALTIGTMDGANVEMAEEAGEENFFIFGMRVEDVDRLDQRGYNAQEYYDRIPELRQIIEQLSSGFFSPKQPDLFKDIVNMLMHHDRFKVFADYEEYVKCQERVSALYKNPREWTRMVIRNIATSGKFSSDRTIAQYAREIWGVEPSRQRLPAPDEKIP
Description: To understand the validity of the synthetic probes, the synthesized probes 1–3 were evaluated in an enzyme inhibition assay against rabbit muscle glycogen phosphorylase a (RMGPa). As described previously, the activity of RMGPa was measured through detecting the release of phosphate from glucose-1-phosphate in the direction of glycogen synthesis, based on the published method.
The inhibitory activity of the test compounds against RMGPa was monitored using a microplate reader (BIO-RAD, Bio-Rad Laboratories, Hercules, CA, USA), based on the published method. In brief, RMGPa activity was measured in the direction of glycogen synthesis by the release of phosphate from glucose-1-phosphate. Each test compound was dissolved in DMSO and diluted at different concentrations for IC50 determination. The enzyme was added to 100 μL of buffer containing 50 mM Hepes (pH = 7.2), 100 mM KCl, 2.5 mM MgCl2, 0.5 mM glucose-1-phosphate, 1 mg/mL glycogen, and the test compound in 96-well microplates (Costar, Corning Incorporated, Corning, NY, USA). After the addition of 150 μL of 1 M HCl containing 10 mg/mL ammonium molybdate and 0.38 mg/mL malachite green, reactions were run at 22 °C for 25 min, and then the phosphate absorbance was measured at 655 nm. The IC50 values were estimated by fitting the inhibition data to a dose-dependent curve using a logistic derivative equation.

SMILES | Labelling of protein bands with MW of about 90–100 kDa in semi-quantitative analysis ([1]; 10 μM probe, rat AMI serum and serum blanks with added RMGPa 0–100 ng/mL) | Labelling of protein band with MW of about 90–100 kDa (consistent with MW of GP) ([1]; probe at 10, 3, and 1 mM, and 300, 100, and 30 nM, 2.0 mg/mL proteomes) | IC50 [2] | melting point | RMGPa IC50 [2]
CN(C)c1cccc2c(S(=O)(=O)NCCCC[C@H](NC(=O)c3ccc(C(=O)c4ccccc4)cc3)C(=O)OCc3cn(CCOCCOCCOCCOC4CCN(C(=O)[C@H](Cc5ccc(F)cc5)NC(=O)c5cc6cc(Cl)ccc6[nH]5)CC4)nn3)cccc12 [Compound 1, N-[(S)-1-(4-{2-[2-(2-{2-[4-({[(S)-2-(4-Benzoylbenzamido)-6-(dansylamide)hexanoyl]oxy}methyl)-1H-1,2,3-triazol-1-yl]ethoxy}ethoxy)ethoxy]ethoxy}piperidin-1-yl)-3-(4-fluorophenyl)-1-oxopropan-2-yl]-5-chloro-1H-indole-2-carboxamide] | efficiently labeled | clearly labelled | 13.2 ± 5.87 µM | 151 to 153 °C | –
CN(C)c1cccc2c(S(=O)(=O)NCCCCC(NC(=O)c3ccc(C(=O)c4ccccc4)cc3)C(=O)N[C@@H](CCCCNC(=O)CCCC[C@@H]3SC[C@H]4NC(=O)N[C@@H]34)C(=O)OCc3cn(CCOCCOCCOCCOC4CCN(C(=O)[C@H](Cc5ccc(F)cc5)NC(=O)c5cc6cc(Cl)ccc6[nH]5)CC4)nn3)cccc12 (stereo partly drawn) [Compound 2, N-[(S)-1-(4-{2-[2-(2-{2-[4-({[(S)-2-[(S)-2-(4-Benzoylbenzamido)-6-(dansylamide)hexanamido]-6-(5-{(3aR,4S,6aS)-2-oxohexahydro-1H-thieno[3,4-d]imidazol-1-yl}pentanamido)hexanoyl]oxy}methyl)-1H-1,2,3-triazol-1-yl]ethoxy}ethoxy)ethoxy]ethoxy}piperidin-1-yl)-3-(4-fluorophenyl)-1-oxopropan-2-yl]-5-chloro-1H-indole-2-carboxamide] | – | – | – | 159 to 161 °C | no inhibitory activity
[N-]=[N+]=NCC(=O)NCCCC[C@H](NC(=O)c1ccc(C(=O)c2ccccc2)cc1)C(=O)OCc1cn(CCOCCOCCOCCOC2CCN(C(=O)[C@H](Cc3ccc(F)cc3)NC(=O)c3cc4cc(Cl)ccc4[nH]3)CC2)nn1 [Compound 3, N-[(S)-1-(4-{2-[2-(2-{2-[4-({[(S)-2-(4-Benzoylbenzamido)-6-(2-azidoacetamido)hexanoyl]oxy}methyl)-1H-1,2,3-triazol-1-yl]ethoxy}ethoxy)ethoxy]ethoxy}piperidin-1-yl)-3-(4-fluorophenyl)-1-oxopropan-2-yl]-5-chloro-1H-indole-2-carboxamide] | – | – | – | 113 to 115 °C | –
O=C(N[C@@H](Cc1ccc(F)cc1)C(=O)N1CCC(OCCOCCOCCOCCO)CC1)c1cc2cc(Cl)ccc2[nH]1 [Compound 11, N-{(S)-1-[4-(2-{2-[2-(2-Hydroxyethoxy)ethoxy]ethoxy}ethoxy)piperidin-1-yl]-3-(4-fluorophenyl)-1-oxopropan-2-yl}-5-chloro-1H-indole-2-carboxamide] | – | – | 0.43 ± 0.16 µM | 103 to 105 °C | –
